Data set [1] relates to internal bronchia. Put plainly: Cooling towel (washing processed), organoleptic ranking of cooling action. The note with it: for sum of the ranking numbers (cooling effect on treated hand towel after washing): 1% in base washing detergent, low sum = strong; for cooling action (in words), strength and durability: washing processed towel, comparison within the compound class. Format: in vivo. An excerpt: (§1) Each of di-1-menthyl carbonate, di-1-isopulegol carbonate, 1-menthyl-1-menthoxy ethyl carbonate, 1-menthyl-1-isopulegol carbonate, 1-menthoxypropanediol benzaldehyde acetal, 1-menthoxypropanediol methylheptenone ketal, 1-menthoxypropanediol-1-citronellal acetal, menthyl palmitate, menthyl stearate, menthyl isostearate, 1-menthoxypropanediol, and an equivalent-weight mixture of 1-menthyl-menthoxy ethyl carbonate, menthoxypropanediol citronellal acetal and menthyl isostearate was compounded with a base washing detergent solution at a concentration of 1%.
(§2) A pure cotton hand towel (white plain towel made in Japan, 20 cm×20 cm, degrease-finished) was hand-washed for 3 minutes at a particular concentration (water: 10 L, detergent: 3 g, water temperature: 17° C.), then washed with the same amount of water for 2 minutes, squeezed lightly, and air-dried indoor for 6 hours. The hand towels prepared, the hand towels after 24 hours and the hand towels after 48 hours were brought into contact with the internal bronchia and the cooling action thereof was determined organoleptically. The determination was conducted as same as Example 1, that is, […] professional examiners are divided into three groups; different 5 kinds of samples were ranked from the strongest to weakest in action respectively by the examiners in three groups; and the result was shown by the sum of the ranking numbers.

Data set [2] relates to professional examiners. The data set is described as follows: Cooling treated towel (direct spraying), organoleptic ranking of cooling action. It counts as in vivo. The note with it: for cooling action (in words), strength and consistency: comparison over 10 min to 24 hr, within the compound class. From the text: 1% ethanol solution of each of di-1-menthyl carbonate, di-1-isopulegol carbonate, 1-menthyl-1-menthoxy ethyl carbonate, 1-menthyl-1-isopulegol carbonate, 1-menthoxypropanediol methylheptenone ketal, 1-menthoxypropanediol benzaldehyde acetal, 1-menthoxypropanediol-l-citronellal acetal, menthyl palmitate, menthyl stearate, menthyl isostearate, 1-menthol, and an equivalent-weight mixture of 1-menthyl-menthoxy ethyl carbonate, menthoxypropanediol citronellal acetal and menthyl isostearate was prepared. The solution was sprayed on a pure cotton hand towel (white plain towel made in Japan, 20 cm×20 cm, degrease-finished) in an amount of 1 g. After the towel was air-dried for 10 minutes, 3 hours, or 24 hours, the cooling action of each towel was determined organoleptically. Fifteen professional examiners with 5 years or more of experience are divided into three groups; different 5 kinds of samples were ranked from the strongest to weakest in action respectively by the examiners in three groups; and the result was shown by the sum of the ranking numbers.

Data set [3] can be described thus: Cooling towel (washing processed), organoleptic ranking of cooling action. Format: in vivo. The settings on record: after washing treatment and air drying for 6 hours.
From the text: as §1, §2

Where [4] appears, read: Group B, 24 hr (third time point).
The mark [5] stands for this setting: Group B, air-dried 10 min, 1% ethanol solution, low sum = strong.
Setting [6] is: Group B, air-dried 3 hr, 1% ethanol solution, low sum = strong.
The mark [7] stands for this setting: Group B, air-dried 24 hr, 1% ethanol solution, low sum = strong.
Where [8] appears, read: Group A, air-dried 10 min, 1 g of 1% ethanol solution sprayed on cotton towel, ranked strongest to weakest (low sum = strong).
The mark [9] stands for this setting: Group A, air-dried 3 hr, 1% ethanol solution, low sum = strong.
Setting [10] is: Group A, air-dried 24 hr, 1% ethanol solution, low sum = strong.
Setting [11] is: Group C, air-dried 10 min, 1% ethanol solution, low sum = strong.
[12] abbreviates: Group C, air-dried 3 hr, 1% ethanol solution, low sum = strong.
[13] abbreviates: Group C, air-dried 24 hr, 1% ethanol solution, low sum = strong.

From patent US8632792B2, “Cooling sensation agent composition and sensory stimulation agent composition” (Takasago International Corporation, priority 2008, dated 2014) come the findings set out here.

In the case of `CC(C)[C@@H]1CC[C@@H](C)C[C@H]1OCC1COC(c2ccccc2)O1` (some centres unmarked) [1-menthoxypropanediol benzaldehyde acetal], the “sum of the ranking numbers (cooling effect on treated hand towel after washing)” value in data set [1] (Group B, 6 hr) is given as 11; in data set [1] (setting [4]), 11; in data set [1] (Group B, 24 hr), 11. Moreover, the “sum of the ranking numbers (cooling effect on treated hand towel at direct spraying)” value in data set [2] (setting [5]) came to 15; in data set [2] (setting [6]), 9; in data set [2] (setting [7]) it was 9.
For `CC(C)=CCCC1(C)OCC(CO[C@@H]2C[C@H](C)CC[C@H]2C(C)C)O1` (some centres unmarked) [1-menthoxypropanediol methylheptenone ketal], the “sum of the ranking numbers (cooling effect on treated hand towel after washing)” value in data set [1] (Group B, 6 hr) was found to be 10; in data set [1] (setting [4]), 10; in data set [1] (Group B, 24 hr), 11. The “sum of the ranking numbers (cooling effect on treated hand towel at direct spraying)” value in data set [2] (setting [5]) stood at 13; in data set [2] (setting [6]) it was 6; in data set [2] (setting [7]), 6. For the same compound, in data set [2] (direct spraying), the “cooling action (in words), strength and consistency” value is recorded as “strongest in action”.
In the case of `CC1CCC(C(C)C)C(OCC(O)CO)C1` (centres unmarked) [1-menthoxypropanediol, reference compound], in data set [3], the “cooling action (in words)” value is “did not have cooling action”.
On to `CC(C)=CCC[C@H](C)CC1OCC(CO[C@@H]2C[C@H](C)CC[C@H]2C(C)C)O1` (some centres unmarked) [1-menthoxypropanediol-1-citronellal acetal], for which the “sum of the ranking numbers (cooling effect on treated hand towel after washing)” value is listed as 13 in data set [1] (Group B, 6 hr); 13 in data set [1] (setting [4]); 13 in data set [1] (Group B, 24 hr). For the same compound, the “sum of the ranking numbers (cooling effect on treated hand towel at direct spraying)” value in data set [2] (setting [5]) is 18; in data set [2] (setting [6]), 16; in data set [2] (setting [7]) it was 16.
On to `C=C(C)[C@@H]1CC[C@@H](C)C[C@H]1OC(=O)O[C@@H]1C[C@H](C)CC[C@H]1C(=C)C` [Di-l-isopulegol carbonate, di-1-isopulegol carbonate], for which the melting point is 86 to 87 °C. The “sum of the ranking numbers (cooling effect on treated hand towel after washing)” value in data set [1] (Group A, 6 hr) turned out to be 14. In addition, in data set [1] (Group A, 24 hr), the “sum of the ranking numbers (cooling effect on treated hand towel after washing)” value was determined as 13. Further, the “sum of the ranking numbers (cooling effect on treated hand towel after washing)” value in data set [1] (Group A, 48 hr) is 14. Also, in data set [2] (setting [8]), the “sum of the ranking numbers (cooling effect on treated hand towel at direct spraying)” value turned out to be 17. For the same compound, in data set [2] (setting [9]), the “sum of the ranking numbers (cooling effect on treated hand towel at direct spraying)” value is 12. Also, the “sum of the ranking numbers (cooling effect on treated hand towel at direct spraying)” value in data set [2] (setting [10]) worked out at 11.
For the compound `CC(C)[C@@H]1CC[C@@H](C)C[C@H]1OC(=O)O[C@@H]1C[C@H](C)CC[C@H]1C(C)C` [Di-l-menthyl carbonate, di-1-menthyl carbonate], the “sum of the ranking numbers (cooling effect on treated hand towel after washing)” value in data set [1] (Group A, 6 hr) was 16; in data set [1] (Group A, 24 hr), 18; in data set [1] (Group A, 48 hr) it was 18; in data set [1] (Group B, 6 hr), 16; in data set [1] (setting [4]) it was 16; in data set [1] (Group B, 24 hr), 15. Moreover, the “sum of the ranking numbers (cooling effect on treated hand towel after washing)” value in data set [1] (Group C, 6 hr) is given as 16; in data set [1] (Group C, 24 hr), 21; in data set [1] (Group C, 48 hr), 21. In addition, the “cooling action (in words), strength and durability” value in data set [1] is listed as “weakest”. Also, the “sum of the ranking numbers (cooling effect on treated hand towel at direct spraying)” value in data set [2] (setting [8]) was 24; in data set [2] (setting [9]), 21; in data set [2] (setting [10]), 20; in data set [2] (setting [5]), 24; in data set [2] (setting [6]), 19; in data set [2] (setting [7]), 19. Also, the “sum of the ranking numbers (cooling effect on treated hand towel at direct spraying)” value stood at 17 in data set [2] (setting [11]), 21 in data set [2] (setting [12]) and 21 in data set [2] (setting [13]).
In the case of `CCCCCCCCCCCCCCCC(=O)OC1CC(C)CCC1C(C)C` (centres unmarked) [Menthyl palmitate, menthyl palmitate], the “sum of the ranking numbers (cooling effect on treated hand towel after washing)” value is reported as 18 in data set [1] (Group C, 6 hr); 16 in data set [1] (Group C, 24 hr); 17 in data set [1] (Group C, 48 hr). The results for the “sum of the ranking numbers (cooling effect on treated hand towel at direct spraying)” value in data set [2] (setting [11]), in data set [2] (setting [12]) and in data set [2] (setting [13]) were 15, 17 and 17, respectively.
Consider `CCCCCCCCCCCCCCCCCC(=O)OC1CC(C)CCC1C(C)C` (centres unmarked) [Menthyl stearate, menthyl stearate], for which the “sum of the ranking numbers (cooling effect on treated hand towel after washing)” value was determined as 21 in data set [1] (Group C, 6 hr); 18 in data set [1] (Group C, 24 hr); 17 in data set [1] (Group C, 48 hr). The figures for the “sum of the ranking numbers (cooling effect on treated hand towel at direct spraying)” value in data set [2] (setting [11]), in data set [2] (setting [12]) and in data set [2] (setting [13]) were 21, 15 and 17, respectively.
Take `CC(C)[C@@H]1CC[C@@H](C)C[C@H]1O` [l-Menthol, 1-menthol, reference compound]: the “sum of the ranking numbers (cooling effect on treated hand towel after washing)” value was found to be 25 in data set [1] (Group A, 6 hr); 25 in data set [1] (Group A, 24 hr); 25 in data set [1] (Group A, 48 hr); 25 in data set [1] (Group B, 6 hr); 25 in data set [1] (setting [4]); 25 in data set [1] (Group B, 24 hr). Further, the “sum of the ranking numbers (cooling effect on treated hand towel at direct spraying)” value in data set [2] (setting [8]) was 5; in data set [2] (setting [9]) it was 24; in data set [2] (setting [10]) it was 25; in data set [2] (setting [5]), 5; in data set [2] (setting [6]), 25; in data set [2] (setting [7]) it was 25. The “cooling action (in words)” value in data set [2] (direct spraying, after air drying for 10 minutes) is given as “strongest cooling action”. In data set [2] (direct spraying), the “cooling action (in words), strength and consistency” value is reported as “less consistent”.
`C=C(C)[C@@H]1CC[C@@H](C)C[C@H]1OC(=O)O[C@@H]1C[C@H](C)CC[C@H]1C(C)C` [l-Menthyl-l-isopulegol carbonate, 1-menthyl-1-isopulegol carbonate]: the “sum of the ranking numbers (cooling effect on treated hand towel after washing)” value was 12 in data set [1] (Group A, 6 hr); 12 in data set [1] (Group A, 24 hr); 11 in data set [1] (Group A, 48 hr). Further, the “sum of the ranking numbers (cooling effect on treated hand towel at direct spraying)” value in data set [2] (setting [8]) was 19; in data set [2] (setting [9]), 1; in data set [2] (setting [10]) it was 14.
Turning to `CC(C)[C@@H]1CC[C@@H](C)C[C@H]1OCCOC(=O)O[C@@H]1C[C@H](C)CC[C@H]1C(C)C` [l-Menthyl-l-menthoxy ethyl carbonate, 1-menthyl-1-menthoxy ethyl carbonate], the “sum of the ranking numbers (cooling effect on treated hand towel after washing)” value in data set [1] (Group A, 6 hr) was found to be 8; in data set [1] (Group A, 24 hr), 7; in data set [1] (Group A, 48 hr) it was 7. The “cooling action (in words), strength and durability” value in data set [1] is “strongest”. The results for the “sum of the ranking numbers (cooling effect on treated hand towel at direct spraying)” value in data set [2] (setting [8]), in data set [2] (setting [9]) and in data set [2] (setting [10]) were 10, 5 and 5, respectively. In data set [2] (direct spraying), the “cooling action (in words), strength and consistency” value is “superior both in initial strength and consistency”.

By melting point is commonly meant the temperature of the solid-liquid transition.
